According to US20200390755A1, “COMPOUND FOR TREATING NERVOUS SYSTEM DISEASES AND USE THEREOF” (SHAANXI MICOT TECHNOLOGY CO., LTD., priority 2018, published 2020):

Legend:
N171-82Q HD mice [1] = assay: High-altitude balance beam (11 mm) experiment 1, HD mice; assay type: in vivo, mouse; details: 5 mg/kg/d intragastric
Protocol: (§1) 7-week-old N171-82Q HD male mice were paired with female B6C3F1/J hybrid mice to obtain newborn mice. From 21 days of age, male mice were housed in separate cages. 0.5 cm of mouse tail tissue was removed to extract DNA to determine the genotype of the mouse, such that N171-82Q HD mice and WT mice needed for the experiment were obtained. The mice were randomly divided into WT Vehicle group (normal mice), WT test compound group (administration group of normal mice, 5 mg/kg/d, n=10), HD Vehicle group (blank group of HD mice, n=15), HD test compound group (administration groups 1-5 of HD mice, 5 mg/kg/d, n=10). The test compound was suspended in 1% CMC-Na solution and administered by intragastric administration until the end of the study. The weights of the mice were measured every week. Behavioral tests were performed at 12 weeks, 18 weeks, and 24 weeks of age to investigate motor function. At 20 weeks, 3 samples of tissue from each group were used for western blotting and immunohistochemistry. At 24 weeks, MRI scans were performed. At the end of the study, the effect of the test compound on the mortality of mice was evaluated.
(§2) The software Sigmaplot 13.0 was used for statistical analysis of the data, and the data of each group was expressed as mean standard error (x±SEM). Behavioral test results were analyzed using two-way (genotype and processing factor) ANOVA and post-ho tests, the comparison and statistics of weight data were performed using two-way (genotype and age) ANOVA of repeated measures, and mortality was counted using Kaplan-Meier method. Other measurement data were analyzed by one-way ANOVA. P<0.05 was considered statistically significant.
(§3) The motor function of mice was evaluated by the rotarod experiment and three types of balance beam experiments. The shorter the time for mouse to cross the balance beam, and the longer the time to drop, the stronger the coordination ability of the mouse.
(§4) A square balance beam with a length of 100 cm and a width of 11 mm was placed at a 45-degree angle to the horizontal ground. A black box (12×12×12 cm) was placed at the end of the balance beam, and the starting platform was illuminated by bright lights. Spacers were placed under the balance beam to provide cushioning in case that the animal falls off the beam. One hour before the test, the mice were trained to cross the beam three times at one-eighth, one-quarter, and full-length distances from the black box, respectively. If the mice stopped walking during training, they were gently pressed with long forceps on the tail to encourage movement. After the training experiment, the mice rested for at least one hour in an undisturbed environment. In the experiment, the maximum time for each mouse to cross the balance beam was set to 60 seconds. If the time for crossing the beams was greater than 60 seconds, it was recorded as 60 seconds.
a round balance beam with a length of 80 cm and a diameter of 11 mm was place at a height of about 50 cm from the ground. The following steps are the same as the slope balance beam experiment.

Phospho-Akt S473 = assay: ELISA analysis of Phospho-Akt S473 in primary cortical neuron cells; assay type: cell-based, mouse; details: 500 nM, 10 min at 37° C.
Protocol: The primary cortical neuron cells were cultured in the same way as in Example 21, and after maturity, appropriate amount of freshly prepared culture medium was added until final volume in each well was 2 mL. The experiment included a blank control group (Vehicle), a positive control group BDNF (10 ng/mL), a control compound group (500 nM), and 6 test compound groups (500 nM). Three repeats were set for each dose. After incubating at 37° C. for 10 min, the culture solution was discarded and the cells were washed with pre-chilled PBS, and then 40 μL of pre-chilled lysate (RIPA buffer 10 mL and protease and phosphatase inhibitor 100 μL) was added to each well for lysis on ice for 30 min. After lysis, the cell was crushed by ultrasonic cell crusher, centrifuged at 14000 rpm for 20 min at 4° C. The supernatant was transferred to a new 1.5 mL centrifuge tube to extract protein. The p-Akt ELISA experiment quantitatively detected the intracellular p-Akt protein level.
A series of p-Akt standard solutions with different concentrations were prepared, and the absorbance value was measured to make a standard curve. Phospho-Akt1 (Ser473) sandwich ELISA kit was purchased from Cell Signaling Technology (catalog number 7160). The antibody was coated in a 96-well plate at 4° C. overnight and was washed. The coated plate was blocked with 2% bovine serum albumin (BSA), and after sufficient washing, 100 μL of sample diluent (supplied in the kit) was added to each well to dilute the extracted protein. The plate was incubated overnight at 4° C. After washing 4 times with 200 μL of washing buffer (supplied in the kit), 100 μL/well of detection antibody was added and the plate was incubated at 37° C. for 1 hour. After 4 washes, 100 μL of HRP-conjugated secondary antibody (supplied in the kit) was added and the plate was incubated at 37° C. for 30 minutes. After the final wash, 100 μL of TMB substrate was added to each well and the plate was incubated at 37° C. for 10 minutes. TMB was use as a substrate to detect the signal, since TMB can be oxidized to produce a blue solution. The reaction was stopped by adding 100 μL/well stop solution, and the test result can remain stable within one hour after the stop of the reaction. The value of each well at 450 nm and 650 nm was detected using a microplate reader. The optical density (OD) was determined by subtracting the reading at 650 nm (disturbance from the solution itself) from the reading at 450 nm. According to the OD value corresponding to the standard curve, the p-Akt concentration in each well was obtained.
the data of each group was expressed as mean standard error (x±SEM). The ratio of the detection results of each positive control group (BNDF), control compound group (the same control compound as in Example 21) and each test compound group to the blank control group was used as an indicator to compare the p-Akt test results of the positive control group, control compound group, and each test compound group. One-way ANOVA and LSD post-hoc test were used to compare the measurement data among multiple groups, and P<0.05 was considered statistically significant.

N171-82Q HD mice [2] = assay: High-altitude balance beam (5 mm) experiment 2, HD mice; assay type: in vivo, mouse; details: 5 mg/kg/d intragastric
Protocol: as §1, §2, §3, §4
a square balance beam with a length of 80 cm and a width of 5 mm was place at a height of about 50 cm from the ground. The following steps are the same as the slope balance beam experiment.

SMILES	Time for crossing the beams, high-altitude balance beam (11 mm) (N171-82Q HD mice [1]; 12 w)	Time for crossing the beams, high-altitude balance beam (11 mm) (N171-82Q HD mice [1]; 18 w)	Time for crossing the beams, high-altitude balance beam (11 mm) (N171-82Q HD mice [1]; 24 w)	Relative content of p-Akt protein (ELISA, ratio to blank control group) (Phospho-Akt S473)	Time for crossing the beams, high-altitude balance beam (5 mm) (N171-82Q HD mice [2]; 12 w)	Time for crossing the beams, high-altitude balance beam (5 mm) (N171-82Q HD mice [2]; 18 w)	Time for crossing the beams, high-altitude balance beam (5 mm) (N171-82Q HD mice [2]; 24 w)
CC1(C)CCN(c2ccc(-c3cc(=O)c4ccc(O)c(O)c4o3)cc2)CC1 [Example 4, 2-(4-(4,4-dimethylpiperidin-1-yl)phenyl)-7,8-dihydroxy-4H-chromen-4-one]	8.57 ± 2.12 s	8.99 ± 2.29 s	9.38 ± 2.94 s	224.33±3.27%	13.22 ± 4.59 s	13.88 ± 5.63 s	15.92 ± 7.87 s
CC1CC(C)CN(c2ccc(-c3cc(=O)c4ccc(O)c(O)c4o3)cc2)C1 (centres unmarked) [Example 5, 2-(4-(3,5-dimethylpiperidin-1-yl)phenyl)-7,8-dihydroxy-4H-chromen-4-one]	8.04 ± 1.67 s	8.61 ± 3.25 s	9.77 ± 4.89 s	217.32±2.57%	14.25 ± 5.34 s	14.98 ± 5.05 s	16.80 ± 5.97 s
O=c1cc(-c2ccc(N3CCCCC3)cc2)oc2c(O)c(O)ccc12 [Example 1, 7,8-dihydroxy-2-(4-(piperidin-1-yl)phenyl)-4H-chromen-4-one]	8.20 ± 1.64 s	7.55 ± 2.42 s	9.18 ± 3.84 s	212.00±2.122%	13.09 ± 4.39 s	12.09 ± 3.27 s	13.91 ± 3.33 s
CN(C)C1CCN(c2ccc(-c3cc(=O)c4ccc(O)c(O)c4o3)cc2)CC1 [Example 3, 2-(4-(4-(dimethylamino)piperidin-1-yl)phenyl)-7,8-dihydroxy-4H-chromen-4-one]	7.94 ± 1.64 s	8.15 ± 1.96 s	8.38 ± 3.78 s	247.33±3.18%	12.20 ± 4.45 s	12.99 ± 4.72 s	13.11 ± 5.30 s
COc1ccc2c(=O)cc(-c3ccc(N4CCCCC4)cc3)oc2c1OC [Example 2, 7,8-dimethoxy-2-(4-(piperidin-1-yl)phenyl)-4H-chromen-4-one]	8.98 ± 1.75 s	8.59 ± 2.18 s	9.68 ± 2.97 s	221.67±3.69%	12.13 ± 4.97 s	13.96 ± 2.74 s	14.32 ± 5.44 s
